Measured values published in patent US9096593B2, “Compounds and methods for kinase modulation, and indications therefor” (Plexxikon Inc., priority 2009, dated 2015).

Legend:
[1] = target: Fms kinase (Homo sapiens (Human), UniProt P07333); assay: Fms kinase biochemical activity assay (AlphaScreen, biotin-(E4Y)10 phosphorylation); settings: read-out: Biochemical activity (IC50 μM) Fms
Description: In one assay the biochemical activity IC50 values are determined with respect to inhibition of Fms kinase activity, where inhibition of phosphorylation of a peptide substrate is measured as a function of compound concentration. Compounds to be tested, dissolved in DMSO (1 μL), are added to a white 384-well plate (Costar #3705). Working stocks of Fms kinase (Invitrogen #PV3249), biotin-(E4Y)10 substrate (Upstate Biotech, Cat#12-440), and ATP (Sigma, Cat#A-3377) are prepared in 25 mM Hepes pH 7.5, 0.5 mM MgCl2, 2 mM MnCl2, 2 mM DTT, 0.01% BSA, and 0.01% Tween-20. All components are added to the 384-well plate for a final concentration of 1 ng/well Fms, 30 nM biotin-(E4Y)10 (Upstate Biotechnology) and 100 μM ATP in a volume of 20 μL. Each sample is at 5% DMSO. The plate is then incubated for 20 minutes at 30° C. Just before use, working stocks of donor and acceptor beads from the AlphaScreen PY20 Detection Kit (PerkinElmer, Cat#676601M) are prepared in 25 mM Hepes pH 7.5, pH 7.4, 100 mM EDTA, 0.01% BSA. To stop the reaction, the plate is uncovered in the dark and 5 μL of Donor Beads solution (Streptavidin beads) is added to each well. The plate is incubated at room temperature for 20 minutes. Five microliters of Acceptor Beads solution (PY20 coated beads) are then added to each well. The final concentration of each bead is 10 μg/mL. The plates are incubated at room temperature for 60 minutes. Fluorescence signal is recorded on the Envision reader. […] The signal vs. compound concentration is used to determine the IC50.

[2] = target: BCR-FMS/BaF3 cells (Homo sapiens, UniProt P07333); assay: BCR-FMS/BaF3 cell proliferation assay (ATPlite); assay type: cell-based
BCR-FMS/BaF3 cells, sequence (P07333 20-972 limits assumed, change not shown): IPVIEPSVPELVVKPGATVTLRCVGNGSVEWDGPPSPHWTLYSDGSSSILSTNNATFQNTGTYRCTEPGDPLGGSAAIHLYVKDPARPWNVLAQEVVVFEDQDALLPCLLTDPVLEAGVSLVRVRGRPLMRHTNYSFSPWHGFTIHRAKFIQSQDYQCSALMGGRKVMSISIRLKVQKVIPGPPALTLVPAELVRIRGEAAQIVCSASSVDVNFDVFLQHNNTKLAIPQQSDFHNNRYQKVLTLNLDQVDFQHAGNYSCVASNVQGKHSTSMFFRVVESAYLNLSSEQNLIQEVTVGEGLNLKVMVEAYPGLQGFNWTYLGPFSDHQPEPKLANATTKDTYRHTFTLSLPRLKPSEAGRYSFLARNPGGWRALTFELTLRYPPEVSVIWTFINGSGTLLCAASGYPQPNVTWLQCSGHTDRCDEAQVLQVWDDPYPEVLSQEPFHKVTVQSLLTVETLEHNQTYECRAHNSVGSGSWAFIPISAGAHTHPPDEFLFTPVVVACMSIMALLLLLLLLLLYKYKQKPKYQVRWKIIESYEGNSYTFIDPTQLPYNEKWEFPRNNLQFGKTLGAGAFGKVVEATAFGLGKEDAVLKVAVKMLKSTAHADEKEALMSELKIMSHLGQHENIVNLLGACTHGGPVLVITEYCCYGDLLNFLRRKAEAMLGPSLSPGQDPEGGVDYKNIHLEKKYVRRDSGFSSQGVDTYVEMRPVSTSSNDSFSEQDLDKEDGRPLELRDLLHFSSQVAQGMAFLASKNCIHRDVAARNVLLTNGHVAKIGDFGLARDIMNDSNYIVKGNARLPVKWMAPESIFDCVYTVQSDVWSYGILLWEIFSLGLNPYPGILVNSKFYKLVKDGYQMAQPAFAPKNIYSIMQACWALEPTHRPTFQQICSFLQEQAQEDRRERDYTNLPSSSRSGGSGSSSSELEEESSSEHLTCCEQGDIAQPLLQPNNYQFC
Description: Compounds are assessed in a variety of cell based assays. For example BCR-FMS/BaF3, BCR-KIT/BaF3, M-NFS-60, M-07e, and BAC1.2F5 cell proliferation assays are used to assess inhibitory activity of Fms or Kit and MV-4-11 cell proliferation assay is used to assess inhibitory activity in Flt-3. […] On day 1, cells are counted, then centrifuged in a conical tube for 5 minutes at 1000 rpm. The supernatant is removed and cells are re-suspended as follows: • BCR-FMS/BaF3 and BCR-KIT/BaF3: resuspend in growth media+1 mg/mL G418 (without WEHI/IL-3) to 2×10^5 cells/mL. • M-NFS-60: resuspend in growth media +62 ng/mL murine M-CSF to 5×10^5 cells/mL. • M-07e: resuspend in growth media +200 ng/mL human SCF to 5×10^5 cells/mL. • BAC1.2F5: resuspend in growth media +36 ng/mL murine M-CSF to 1.4×10^5 cells/mL. • MV-4-11: resuspend in growth media +10% FBS to 5×10^5 cells/mL. […] On day 2, compound at a maximum concentration of 5 mM is serially diluted 1:3 for a total of 8 point titration with DMSO as a control. A 1 μL aliquot of each dilution point is added to 249 μL growth media and 50 μL is added to a well containing cells, providing 10 μM compound for the maximum concentration point. The cells are incubated for 3 days at 37° C. in 5% CO2. […] ATPlite is added to each well as follows: • BCR-FMS/BaF3 and BCR-KIT/BaF3: 25 μL per well. • M-NFS-60: 25 μL per well. • M-07c: 40 μL per well. • BAC1.2F5: 50 μL per well. • MV-4-11: 40 μL per well. The cells are incubated at room temperature for 10 minutes, then luminescence is read on Safire reader. The measured luminescence correlates directly with cell number, such that the reading as a function of compound concentration is used to determine the IC50 value.

[3] = target: BCR-KIT/BaF3 cells (Homo sapiens, UniProt P10721); assay: BCR-KIT/BaF3 cell proliferation assay (ATPlite); assay type: cell-based; settings: read-out: BCR/BaF3 (IC50 μM) Kit
BCR-KIT/BaF3 cells, sequence (P10721 26-976 limits assumed, change not shown): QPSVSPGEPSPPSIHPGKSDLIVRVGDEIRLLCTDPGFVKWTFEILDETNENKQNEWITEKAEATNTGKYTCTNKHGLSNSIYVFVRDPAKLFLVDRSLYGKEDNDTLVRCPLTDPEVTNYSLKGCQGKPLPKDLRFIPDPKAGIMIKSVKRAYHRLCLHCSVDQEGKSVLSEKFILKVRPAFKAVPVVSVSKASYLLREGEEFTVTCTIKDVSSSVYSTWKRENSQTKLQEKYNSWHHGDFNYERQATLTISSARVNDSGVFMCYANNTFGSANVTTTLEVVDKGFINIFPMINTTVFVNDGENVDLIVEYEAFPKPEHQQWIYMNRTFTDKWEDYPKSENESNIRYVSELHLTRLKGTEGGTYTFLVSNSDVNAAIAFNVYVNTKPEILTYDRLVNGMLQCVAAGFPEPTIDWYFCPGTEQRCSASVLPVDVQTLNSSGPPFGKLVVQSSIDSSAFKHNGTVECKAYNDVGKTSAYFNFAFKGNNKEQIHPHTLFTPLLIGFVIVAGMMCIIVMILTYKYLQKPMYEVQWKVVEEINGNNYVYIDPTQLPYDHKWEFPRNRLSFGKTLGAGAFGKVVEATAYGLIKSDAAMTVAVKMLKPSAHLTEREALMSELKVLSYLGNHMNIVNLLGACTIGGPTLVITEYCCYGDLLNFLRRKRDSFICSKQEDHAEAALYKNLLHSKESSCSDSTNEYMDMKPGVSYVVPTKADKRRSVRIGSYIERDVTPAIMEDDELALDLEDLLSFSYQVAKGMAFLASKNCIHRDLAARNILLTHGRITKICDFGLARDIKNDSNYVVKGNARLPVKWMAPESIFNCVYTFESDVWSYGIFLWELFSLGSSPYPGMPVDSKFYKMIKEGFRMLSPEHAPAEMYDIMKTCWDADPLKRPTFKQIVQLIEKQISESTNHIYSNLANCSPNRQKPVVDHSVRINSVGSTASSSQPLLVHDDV
Description: Compounds are assessed in a variety of cell based assays. For example BCR-FMS/BaF3, BCR-KIT/BaF3, M-NFS-60, M-07e, and BAC1.2F5 cell proliferation assays are used to assess inhibitory activity of Fms or Kit and MV-4-11 cell proliferation assay is used to assess inhibitory activity in Flt-3. Reagent and assay conditions are as follows: • BCR-FMS/BaF3 and BCR-KIT/BaF3 cells: • Maintained in RPMI containing 10% FBS, 1% PenStrep, 1% NEAA, and 1% L-Glutamine, supplemented with 1 mg/mL G418 and 5% WEHI-CM (or recombinant murine IL-3). • Confluent cells are split 1:50 to 1:100 every 3-4 days. • M-NFS-60 cells (ATCC #CRL-1838): • Maintained in RPMI containing 10% FBS, 1% Hepes, 1% NaPyruvate, and 0.45% Glucose, supplemented with 62 ng/mL murine M-CSF. • Confluent cells are split 1:20 every 3-4 days. • M-07e cells (DSMZ #ACC 104): • Maintained in IMDM containing 10% FBS, supplemented with either 200 ng/mL human SCF or […] SCF (R&D Systems 255-SC). • Confluent cells are split 1:5 to 1:10 every 3-4 days. • BAC1.2F5 cells: • Maintained in Alpha-MEM containing 10% Newborn Calf Serum (Invitrogen #26010-074) supplemented with 36 ng/mL murine M-CSF. • Confluent cells are split 1:4 every 3-4 days. • MV-4-11 cells: • Maintained in Iscove's Modified Dulbecco's Medium containing 10% FBS. • Confluent cells are split 1:4 every 3-4 days. On day 1, cells are counted, then centrifuged in a conical tube for 5 minutes at 1000 rpm. The supernatant is removed and cells are re-suspended as follows: • BCR-FMS/BaF3 and BCR-KIT/BaF3: resuspend in growth media+1 mg/mL G418 (without WEHI/IL-3) to 2×10^5 cells/mL. • M-NFS-60: resuspend in growth media +62 ng/mL murine M-CSF to 5×10^5 cells/mL. • M-07e: resuspend in growth media +200 ng/mL human SCF to 5×10^5 cells/mL. • BAC1.2F5: resuspend in growth media +36 ng/mL murine M-CSF to 1.4×10^5 cells/mL. • MV-4-11: resuspend in growth media +10% FBS to 5×10^5 cells/mL. The cells are plated (50 μL) in each well of a 96-well dish (Corning 3610) and incubated at 37° C. in 5% CO2 overnight, cells plated to a final concentration of cells as follows: • BCR-FMS/BaF3 and BCR-KIT/BaF3: 10,000 cells per well. • M-NFS-60: 25,000 cells per well. • M-07e: 25,000 cells per well. • BAC1.2F5: 7,000 cells per well. • MV-4-11: 25,000 cells per well. On day 2, compound at a maximum concentration of 5 mM is serially diluted 1:3 for a total of 8 point titration with DMSO as a control. A 1 μL aliquot of each dilution point is added to 249 μL growth media and 50 μL is added to a well containing cells, providing 10 μM compound for the maximum concentration point. The cells are incubated for 3 days at 37° C. in 5% CO2. On day 5, ATPlite 1 step Luminescence Assay System (Perkin Elmer #6016739) is brought to room temperature along with the cell cultures. ATPlite is added to each well as follows: • BCR-FMS/BaF3 and BCR-KIT/BaF3: 25 μL per well. • M-NFS-60: 25 μL per well. • M-07c: 40 μL per well. • BAC1.2F5: 50 μL per well. • MV-4-11: 40 μL per well. The cells are incubated at room temperature for 10 minutes, then luminescence is read on Safire reader. The measured luminescence correlates directly with cell number, such that the reading as a function of compound concentration is used to determine the IC50 value.

[4] = Turbidity assay of relative solubility in aqueous buffers; assay type: physicochemical; settings: pH 4.5 (SIF)
Description: As an indication of relative solubility, the turbidity of compounds in aqueous solutions is assessed. To assess possible compound properties in different physiological compartments, such as stomach, intestine, and blood, a series of aqueous buffers with varying pH is used. Thus each compound is diluted into four different physiologically relevant buffers and solution turbidity is measured by spectrophotometry.
Compounds are dissolved at a concentration of 25 mM in dimethyl sulfoxide, then serially diluted 1:1 into a 96 well plate, diluting 10 times in pure dimethyl sulfoxide, with the final well of each row a dimethyl sulfoxide blank. In an assay plate, 99 μL of appropriate buffer is added to each well, and 1 μL of each sample dilution is added to the buffer, achieving a range of final total concentrations in aqueous solutions having different pH. The buffers used are Simulated Gastric Fluid (SGF-pH 1.5) 0.5M NaCl, pH 1.5; Simulated Intestinal fluid (SIF-pH 4.5 and pH 6.8) 0.05M NaH2PO4, pH 4.5 and 6.8; and Hepes Buffer (HEPES-pH 7.4) 10 mM HEPES, 150 mM NaCl, pH 7.4. Control compounds pyrene, estriol and propranolol HCl are also assessed. Plates are spun and then mixed for 1 minute, and the absorbance is read using a Tecan Safire II to read wavelengths in the visible range (490, 535, and 650 nm) at four locations per well, reflecting the degree of turbidity present. The average optical density for each wavelength in each well is graphed vs. compound concentration, and the concentration at which the curve crosses a threshold O.D. of 0.01 for each wavelength is reported as the endpoint turbidity assay result. The average of the three wavelengths is used to compare turbidity of compounds. Compounds are considered to have low solubility if the threshold concentration is <31.3 μM, moderate solubility if the threshold concentration is 31.3 μM to 250 μM, and high solubility if the threshold concentration is >250 μM.

Fms kinase, sequence (P07333 20-972): as the sequence (P07333 20-972 limits assumed, change not shown) above

IC50 [1]	IC50 ([2]; BCR-FMS/BaF3 cells, read-out: BCR/BaF3 (IC50 μM) Fms)	BCR/BaF3 selectivity (Kit IC50/Fms IC50) ([2]; Kit IC50/Fms IC50, BCR-KIT/BaF3 vs BCR-FMS/BaF3 cells)	IC50 [3]	SMILES	turbidity threshold (L, M, H) 4.5 [4]
< 0.1 µM	< 0.1 µM	>20	> 0.1 µM	COc1ccc(CNc2ccc(Cc3c[nH]c4ncc(Cl)cc34)cn2)c(OC)n1 [Compound P-1496, [5-(5-Chloro-1H-pyrrolo[2,3-b]pyridin-3-ylmethyl)-pyridin-2-yl]-(2,6-dimethoxy-pyridin-3-ylmethyl)-amine]	
				COc1ncc(F)cc1CNc1ccc(Cc2c[nH]c3ncc(C#N)cc23)c(F)n1 [Compound P-2193, 3-{2-Fluoro-6-[(5-fluoro-2-methoxy-pyridin-3-ylmethyl)-amino]-pyridin-3-ylmethyl}-1H-pyrrolo[2,3-b]pyridine-5-carbonitrile]	L (low solubility if the threshold concentration is <31.3 μM)
